Reference: patent US20240150362A1, “Substituted Pyrrolotriazines” (Molecure S.A., priority 2022, published 2024)
Counter-ions that a name gives are not always drawn.

Target: T1, full-length USP7 (Homo sapiens, UniProt Q93009)
T1 construct: A 45 μl reaction volume containing full-length USP7 (0.5-1.0 nM)
Assay: Enzymatic assay to determine % inhibition of USP7 activity at 1 μM test compound (Ubiquitin-Rhodamine 110 cleavage)
Format: biochemical
Settings: 1 μM of the test compound; given where IC50 has not been determined yet; mean of two repetitions
Method: Enzymatic Assay to Determine % Value of Inhibition […] Activity at 1 μM […]
A 45 μl reaction volume containing full-length USP7 (0.5-1.0 nM) in 50 mM HEPES pH 7.5, 150 mM NaCl, 2 mM DTT, 1 mg/ml BSA and 0.05% Tween20 (DUB assay buffer) was assembled in wells of 96 well half area black flat bottom plates. All test compounds were first dissolved to 30 mM stocks in DMSO and subsequently introduced to enzyme 15 min after USP7 incubation with DTT at room temperature. The final concentration of tested compounds was 1 μM. The enzymatic reaction was started by adding 0.5 μM Ubiquitin-Rhodamine 110 (final concentration) and allowed to proceed for 30-60 min at 25° C., 250 RPM shaking before Rhodamine fluorescence (485 nm excitation/535 nm emission) was measured using Tecan Spark M10 plate reader. Percentage of inhibition at 1 μM was determined by the mean of two repetitions for these concentrations using Microsoft Excel software.

T1 sequence (Q93009 whole entry): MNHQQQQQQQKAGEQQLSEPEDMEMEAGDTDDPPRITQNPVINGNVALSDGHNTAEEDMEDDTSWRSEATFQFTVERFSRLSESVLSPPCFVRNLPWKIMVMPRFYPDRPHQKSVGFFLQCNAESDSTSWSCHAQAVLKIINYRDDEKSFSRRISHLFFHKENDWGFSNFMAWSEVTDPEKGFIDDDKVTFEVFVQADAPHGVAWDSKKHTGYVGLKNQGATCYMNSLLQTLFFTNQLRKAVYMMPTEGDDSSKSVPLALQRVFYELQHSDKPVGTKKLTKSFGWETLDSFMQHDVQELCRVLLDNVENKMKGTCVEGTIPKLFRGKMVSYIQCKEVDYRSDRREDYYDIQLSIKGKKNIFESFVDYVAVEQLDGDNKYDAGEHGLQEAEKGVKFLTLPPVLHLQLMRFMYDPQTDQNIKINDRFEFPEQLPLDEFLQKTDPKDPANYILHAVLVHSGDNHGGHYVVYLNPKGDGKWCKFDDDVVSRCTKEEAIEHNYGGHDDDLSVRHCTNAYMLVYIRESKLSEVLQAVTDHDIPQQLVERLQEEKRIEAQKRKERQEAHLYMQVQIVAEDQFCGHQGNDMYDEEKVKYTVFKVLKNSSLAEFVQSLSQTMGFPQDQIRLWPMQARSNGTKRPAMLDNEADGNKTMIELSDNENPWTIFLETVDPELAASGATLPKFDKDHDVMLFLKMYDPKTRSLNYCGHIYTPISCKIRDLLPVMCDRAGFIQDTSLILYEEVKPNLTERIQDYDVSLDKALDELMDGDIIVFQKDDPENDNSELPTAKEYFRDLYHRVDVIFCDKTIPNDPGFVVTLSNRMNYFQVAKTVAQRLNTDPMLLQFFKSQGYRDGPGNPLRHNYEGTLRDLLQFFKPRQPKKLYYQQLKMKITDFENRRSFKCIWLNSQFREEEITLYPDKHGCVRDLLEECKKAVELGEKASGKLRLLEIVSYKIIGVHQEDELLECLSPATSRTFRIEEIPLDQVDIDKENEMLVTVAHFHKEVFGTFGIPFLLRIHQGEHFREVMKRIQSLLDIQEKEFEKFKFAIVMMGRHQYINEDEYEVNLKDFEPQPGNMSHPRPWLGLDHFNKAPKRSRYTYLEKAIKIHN

Row | Compound | inhibition at 1 µM [%]
1 | Cc1c(CN2C(=O)C3C(C2=O)C3(C)C)cn2ncnc(-c3cc(Cl)cc4ccn(CC5(F)CCNCC5)c34)c12 (stereo not drawn) [Example 21, 3-((4-(5-chloro-1-((4-fluoropiperidin-4-yl)methyl)-1H-indol-7-yl)-5-methylpyrrolo[2,1-f][1,2,4]triazin-6-yl)methyl)-6,6-dimethyl-3-azabicyclo[3.1.0]hexane-2,4-dione hydrochloride] | 50 to 70
2 | Cc1cc(Cl)cc(-c2ncnn3cc(CN4C(=O)C5C(C4=O)C5(C)C)cc23)c1C(=O)N1C[C@@H](N)[C@@H](C)C1 (stereo partly drawn) [Example 23, 3-((4-(2-((3S,4S)-3-amino-4-methylpyrrolidine-1-carbonyl)-5-chloro-3-methylphenyl)pyrrolo[2,1-f][1,2,4]triazin-6-yl)methyl)-6,6-dimethyl-3-azabicyclo[3.1.0]hexane-2,4-dione 2,2,2-trifluoroacetate] | 50 to 70
3 | CC1(C)C2C(=O)N(Cc3cc4c(-c5cc(Cl)cc6ccn(CC7CNCC(F)(F)C7)c56)ncnn4c3)C(=O)C21 (stereo not drawn) [Example 26, 3-((4-(5-chloro-1-((5,5-difluoropiperidin-3-yl)methyl)-1H-indol-7-yl)pyrrolo[2,1-f][1,2,4]triazin-6-yl)methyl)-6,6-dimethyl-3-azabicyclo[3.1.0]hexane-2,4-dione dihydrochloride] | 20 to 49
4 | Cc1cc(Cl)cc(-c2ncnn3cc(CN4C(=O)C5C(C4=O)C5(C)C)cc23)c1O[C@@H]1CNCC(F)(F)C1 (stereo partly drawn) [Example 28, 3-((4-(5-chloro-2-(((S)-5,5-difluoropiperidin-3-yl)oxy)-3-methylphenyl)pyrrolo[2,1-f][1,2,4]triazin-6-yl)methyl)-6,6-dimethyl-3-azabicyclo[3.1.0]hexane-2,4-dione 2,2,2-trifluoroacetate] | < 20
5 | CC1(C)C2C(=O)N(Cc3cc4c(-c5cc(F)cc6ccn(C[C@@H]7CNCCO7)c56)ncnn4c3)C(=O)C21 (stereo partly drawn) [Example 33, 3-((4-(5-fluoro-1-(((S)-morpholin-2-yl)methyl)-1H-indol-7-yl)pyrrolo[2,1-f][1,2,4]triazin-6-yl)methyl)-6,6-dimethyl-3-azabicyclo[3.1.0]hexane-2,4-dione 2,2,2-trifluoroacetate] | > 70
6 | COC(=O)c1cc(-c2ncnn3cc(CN4C(=O)C5C(C4=O)C5(C)C)cc23)c2c(ccn2C[C@@H]2CNCCO2)c1 (stereo partly drawn) [Example 34, methyl 7-(6-((6,6-dimethyl-2,4-dioxo-3-azabicyclo[3.1.0]hexan-3-yl)methyl)pyrrolo[2,1-f][1,2,4]triazin-4-yl)-1-(((S)-morpholin-2-yl)methyl)-1H-indole-5-carboxylate 2,2,2-trifluoroacetate] | < 20
7 | CC1(C)NC(=O)N(Cc2cc3c(-c4cc(Cl)cc5ccn(C[C@@H]6CNCCO6)c45)ncnn3c2)C1=O [Example 36, (S)-3-((4-(5-chloro-1-(morpholin-2-ylmethyl)-1H-indol-7-yl)pyrrolo[2,1-f][1,2,4]triazin-6-yl)methyl)-5,5-dimethylimidazolidine-2,4-dione hydrochloride] | 50 to 70
8 | Cc1cc(Cl)cc(-c2ncnn3cc(CN4C(=O)C5C(C4=O)C5(C)C)cc23)c1CC1CNCC(F)(F)CO1 (stereo not drawn) [Example 38, 3-((4-(5-chloro-2-((6,6-difluoro-1,4-oxazepan-2-yl)methyl)-3-methylphenyl)pyrrolo[2,1-f][1,2,4]triazin-6-yl)methyl)-6,6-dimethyl-3-azabicyclo[3.1.0]hexane-2,4-dione hydrochloride] | < 20
9 | Cc1cc(Cl)cc(-c2ncnn3cc(CN4C(=O)C5C(C4=O)C5(C)C)cc23)c1CC1CN[C@H](C)CO1 (stereo partly drawn) [Example 40, 3-((4-(5-chloro-3-methyl-2-(((5R)-5-methylmorpholin-2-yl)methyl)phenyl)pyrrolo[2,1-f][1,2,4]triazin-6-yl)methyl)-6,6-dimethyl-3-azabicyclo[3.1.0]hexane-2,4-dione hydrochloride] | 50 to 70
